Reference: patent publication US10287272B2, “Substituted indazole compounds as RORgammaT inhibitors and uses thereof” (Merck Sharp & Dohme Corp., priority 2015, dated 2019)

Tests used:
[1] = system: BclxL gene expression in murine thymus; assay: Murine thymic BclxL gene expression assay; type: in vivo, mouse; conditions: female C57BL/6 mice, oral 0.1-30 mg/kg, thymus collected 2 hours after dosing, qPCR; FIG. 3
Procedure: Animals were euthanized with carbon dioxide (CO2) at 2 hours after dosing, and thymi were collected and immediately placed on ice before processing.
Thymus tissue samples were mashed with syringe plungers in a 48-well, flat-bottom tissue culture plate. Cells were suspended in 1 mL phosphate buffered saline (PBS), and passed through a Falcon 70 μM cell strainer into 50-mL centrifuge tubes. A 200 μL aliquot of cells from each sample were transferred into a 96-well, round-bottom plate. The plate was centrifuged at 1200 rpm and 4° C., flicked to remove supernatant, and the cell pellets were frozen at −80° C. until further processing.
Initial further processing consisted of ribonucleic acid (RNA) isolation and complementary deoxyribonucleic acid (cDNA) synthesis.

TRα = TRα (Homo sapiens (Human), UniProt P10827); assay: Nuclear hormone receptor selectivity assay (GAL4-NHR-LBD luciferase, HEK293); type: cell-based
TRα, sequence (P10827 other isoform, or with tags, fused parts or gaps isoform P10827-2): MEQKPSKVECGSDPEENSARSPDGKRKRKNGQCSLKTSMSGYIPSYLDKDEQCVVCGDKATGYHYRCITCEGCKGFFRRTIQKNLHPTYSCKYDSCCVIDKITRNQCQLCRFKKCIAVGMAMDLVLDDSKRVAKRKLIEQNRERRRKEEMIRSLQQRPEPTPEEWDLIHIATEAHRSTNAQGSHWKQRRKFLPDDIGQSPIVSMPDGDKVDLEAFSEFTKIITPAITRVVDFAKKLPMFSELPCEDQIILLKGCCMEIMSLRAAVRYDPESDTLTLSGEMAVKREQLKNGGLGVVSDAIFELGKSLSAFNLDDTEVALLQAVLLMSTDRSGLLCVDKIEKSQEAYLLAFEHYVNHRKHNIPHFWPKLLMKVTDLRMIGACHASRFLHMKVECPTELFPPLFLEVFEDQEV
Procedure: (§1) In the assay system used, an activated GAL4-nuclear hormone receptor (NHR) fusion construct binds to an upstream activation sequence (UAS) and drives a luciferase reporter gene. […]
(§2) HEK293 cells were transfected with GAL4-NHR-LBD construct (pcDNA3.1neo) and the pGL4.31 GAL4-luciferase reporter construct (Promega) and incubated overnight at 37° C. and 5% CO2. After 16-24 hours, cells were harvested and plated at 20 μL (10,000 cells)/well in tissue-culture treated 384 well plate. […] Next, plates are spun briefly and incubated overnight at 37° C. and 5% CO2. […] In agonist mode, test compound was incubated directly with the cells. For receptors that are not constitutively active, a known agonist is also tested as a positive control.
(§3) After 16-24 hours, luciferase activity was measured. Plates and luciferase reagent (e.g. One-Glo® or Dual Glo®; Promega, Madison, Wis.) were brought to room temperature. Next, a 25 μL aliquot of luciferase reagent was added to each well. Plates were spun down briefly and incubated at room temperature for 10 minutes. The luciferase signal was measured on an Envision plate reader (Perkin Elmer) set to the ultra-sensitive luminescence setting.

PXR = PXR (Homo sapiens (Human), UniProt O75469); assay: as above; type: cell-based; conditions: agonist mode
PXR, sequence (O75469 146-433, species assumed): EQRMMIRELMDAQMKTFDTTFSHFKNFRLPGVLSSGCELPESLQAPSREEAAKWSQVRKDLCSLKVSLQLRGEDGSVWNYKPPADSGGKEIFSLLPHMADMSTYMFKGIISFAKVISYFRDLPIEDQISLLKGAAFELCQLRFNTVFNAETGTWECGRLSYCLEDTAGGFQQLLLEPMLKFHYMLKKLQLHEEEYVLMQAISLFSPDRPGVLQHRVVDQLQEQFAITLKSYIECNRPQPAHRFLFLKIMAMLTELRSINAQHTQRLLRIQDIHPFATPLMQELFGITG
Procedure: as §1, §2, §3

RARβ = RARβ (Homo sapiens (Human), UniProt P10826); assay: as above; type: cell-based
RARβ, sequence (P10826 183-417, species assumed): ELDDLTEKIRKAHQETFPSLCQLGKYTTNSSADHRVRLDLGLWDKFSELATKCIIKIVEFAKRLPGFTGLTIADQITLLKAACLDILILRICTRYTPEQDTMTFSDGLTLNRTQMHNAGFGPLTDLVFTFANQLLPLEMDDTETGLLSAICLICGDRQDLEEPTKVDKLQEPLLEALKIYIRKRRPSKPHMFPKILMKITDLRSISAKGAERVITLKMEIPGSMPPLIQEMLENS
Procedure: as §1, §2, §3

RORβ = RORβ (Homo sapiens (Human), UniProt Q92753); assay: as above; type: cell-based; conditions: antagonist mode
RORβ, sequence (Q92753 222-460): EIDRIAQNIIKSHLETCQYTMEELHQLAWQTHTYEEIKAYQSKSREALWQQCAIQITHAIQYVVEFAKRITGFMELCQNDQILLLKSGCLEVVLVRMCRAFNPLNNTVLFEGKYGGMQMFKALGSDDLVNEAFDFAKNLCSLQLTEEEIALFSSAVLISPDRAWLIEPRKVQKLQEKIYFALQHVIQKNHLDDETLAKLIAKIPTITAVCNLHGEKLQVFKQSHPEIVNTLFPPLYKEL
Procedure: as §1, §2, §3

LXRβ = LXRβ (Homo sapiens (Human), UniProt P55055); assay: as above; type: cell-based
LXRβ, sequence (P55055 222-460): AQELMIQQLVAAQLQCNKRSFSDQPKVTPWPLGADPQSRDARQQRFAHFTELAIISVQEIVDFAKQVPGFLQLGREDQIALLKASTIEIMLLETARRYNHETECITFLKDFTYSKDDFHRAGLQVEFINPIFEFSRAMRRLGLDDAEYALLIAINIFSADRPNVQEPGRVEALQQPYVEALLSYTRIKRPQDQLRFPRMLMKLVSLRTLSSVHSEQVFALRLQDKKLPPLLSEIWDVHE
Procedure: as §1, §2, §3

PPARα = PPARα (Homo sapiens (Human), UniProt Q07869); assay: as above; type: cell-based
PPARα, sequence (Q07869 239-466, species assumed): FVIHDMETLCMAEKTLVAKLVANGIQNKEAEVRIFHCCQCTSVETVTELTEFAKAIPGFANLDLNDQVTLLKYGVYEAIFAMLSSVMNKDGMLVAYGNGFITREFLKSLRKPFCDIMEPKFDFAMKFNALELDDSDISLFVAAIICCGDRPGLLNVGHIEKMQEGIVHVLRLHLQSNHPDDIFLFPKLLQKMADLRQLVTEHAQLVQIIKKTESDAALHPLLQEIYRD
Procedure: as §1, §2, §3

RARα = RARα (Homo sapiens (Human), UniProt P10276); assay: as above; type: cell-based
RARα, sequence (P10276 183-417, species assumed): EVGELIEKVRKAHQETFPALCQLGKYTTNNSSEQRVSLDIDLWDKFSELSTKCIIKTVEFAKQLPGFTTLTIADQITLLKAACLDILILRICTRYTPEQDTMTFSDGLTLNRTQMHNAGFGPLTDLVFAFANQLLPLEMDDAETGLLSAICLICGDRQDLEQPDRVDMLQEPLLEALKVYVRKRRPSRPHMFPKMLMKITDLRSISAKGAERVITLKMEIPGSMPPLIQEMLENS
Procedure: as §1, §2, §3

PPARβ = PPARβ (Homo sapiens (Human), UniProt Q03181); assay: as above; type: cell-based
PPARβ, sequence (Q03181 211-439, species assumed): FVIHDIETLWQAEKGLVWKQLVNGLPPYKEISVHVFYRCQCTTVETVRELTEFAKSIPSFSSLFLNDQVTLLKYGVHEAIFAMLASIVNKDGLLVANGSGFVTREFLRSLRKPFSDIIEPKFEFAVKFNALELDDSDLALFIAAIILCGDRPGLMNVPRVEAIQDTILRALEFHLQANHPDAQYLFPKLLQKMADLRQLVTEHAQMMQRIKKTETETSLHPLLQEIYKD
Procedure: as §1, §2, §3

CAR = CAR (Homo sapiens (Human), UniProt Q14994); assay: as above; type: cell-based
CAR, sequence (Q14994 109-352): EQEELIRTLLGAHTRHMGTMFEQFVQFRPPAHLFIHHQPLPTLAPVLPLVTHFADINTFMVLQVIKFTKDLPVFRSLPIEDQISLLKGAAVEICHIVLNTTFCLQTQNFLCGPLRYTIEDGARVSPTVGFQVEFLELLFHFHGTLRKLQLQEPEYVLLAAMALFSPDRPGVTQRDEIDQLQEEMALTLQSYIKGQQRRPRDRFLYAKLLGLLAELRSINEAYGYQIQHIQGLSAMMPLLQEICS
Procedure: as §1, §2, §3

RARγ = RARγ (Homo sapiens (Human), UniProt P13631); assay: as above; type: cell-based
RARγ, sequence (P13631 185-419, species assumed): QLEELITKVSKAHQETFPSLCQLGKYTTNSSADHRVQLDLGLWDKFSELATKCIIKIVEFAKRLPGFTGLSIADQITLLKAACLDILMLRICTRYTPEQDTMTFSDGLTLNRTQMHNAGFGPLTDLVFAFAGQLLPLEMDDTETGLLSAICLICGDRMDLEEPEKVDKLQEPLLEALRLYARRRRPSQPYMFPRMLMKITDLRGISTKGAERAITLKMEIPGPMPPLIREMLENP
Procedure: as §1, §2, §3

TRβ = TRβ (Homo sapiens (Human), UniProt P10828); assay: as above; type: cell-based
TRβ, sequence (P10828 217-461): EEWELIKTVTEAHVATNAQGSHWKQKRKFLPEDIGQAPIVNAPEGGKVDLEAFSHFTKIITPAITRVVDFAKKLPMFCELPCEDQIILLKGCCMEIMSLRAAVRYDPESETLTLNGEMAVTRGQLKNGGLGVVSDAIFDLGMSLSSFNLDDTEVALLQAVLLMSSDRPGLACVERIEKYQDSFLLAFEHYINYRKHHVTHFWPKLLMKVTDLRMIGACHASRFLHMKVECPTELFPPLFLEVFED
Procedure: as §1, §2, §3

VDR = VDR (Homo sapiens (Human), UniProt P11473); assay: as above; type: cell-based
VDR, sequence (P11473 127-423, species assumed): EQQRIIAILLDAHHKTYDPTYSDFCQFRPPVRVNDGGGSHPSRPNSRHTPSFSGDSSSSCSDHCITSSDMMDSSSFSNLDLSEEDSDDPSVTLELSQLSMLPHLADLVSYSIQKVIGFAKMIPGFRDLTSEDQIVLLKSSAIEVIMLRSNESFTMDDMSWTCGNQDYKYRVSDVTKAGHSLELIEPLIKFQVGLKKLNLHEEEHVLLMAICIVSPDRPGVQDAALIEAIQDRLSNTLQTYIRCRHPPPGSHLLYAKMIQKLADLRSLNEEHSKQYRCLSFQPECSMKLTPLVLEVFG
Procedure: as §1, §2, §3

LXRα = LXRα (Homo sapiens (Human), UniProt Q13133); assay: as above; type: cell-based
LXRα, sequence (Q13133 209-447): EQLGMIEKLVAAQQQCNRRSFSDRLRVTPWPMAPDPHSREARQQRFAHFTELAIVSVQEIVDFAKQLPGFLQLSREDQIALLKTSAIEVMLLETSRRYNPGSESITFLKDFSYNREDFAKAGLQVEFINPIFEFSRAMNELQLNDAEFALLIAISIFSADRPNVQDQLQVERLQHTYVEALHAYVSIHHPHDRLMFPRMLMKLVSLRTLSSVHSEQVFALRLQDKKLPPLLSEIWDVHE
Procedure: as §1, §2, §3

RORα = RORα (Homo sapiens (Human), UniProt P35398); assay: as above; type: cell-based; conditions: antagonist mode
RORα, sequence (P35398 272-510): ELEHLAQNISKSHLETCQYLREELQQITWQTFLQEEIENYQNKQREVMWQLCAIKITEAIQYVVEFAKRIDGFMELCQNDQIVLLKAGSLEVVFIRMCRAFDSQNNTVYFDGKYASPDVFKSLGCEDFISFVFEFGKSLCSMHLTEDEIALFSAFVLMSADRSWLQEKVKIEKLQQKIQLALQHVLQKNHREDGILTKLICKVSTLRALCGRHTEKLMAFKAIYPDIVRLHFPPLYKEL
Procedure: as §1, §2, §3

PPARγ = PPARγ (Homo sapiens (Human), UniProt P37231); assay: as above; type: cell-based
PPARγ, sequence (P37231 238-503, species assumed): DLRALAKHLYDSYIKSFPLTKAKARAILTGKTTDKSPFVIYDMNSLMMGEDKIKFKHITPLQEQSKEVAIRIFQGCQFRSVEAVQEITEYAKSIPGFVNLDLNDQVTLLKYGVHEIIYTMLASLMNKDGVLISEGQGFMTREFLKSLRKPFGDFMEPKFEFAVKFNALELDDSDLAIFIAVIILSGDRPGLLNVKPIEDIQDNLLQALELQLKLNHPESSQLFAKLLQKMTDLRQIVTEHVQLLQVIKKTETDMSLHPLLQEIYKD
Procedure: as §1, §2, §3

FXR = FXR (Homo sapiens (Human), UniProt Q96RI1); assay: as above; type: cell-based
FXR, sequence (Q96RI1 262-486, species assumed): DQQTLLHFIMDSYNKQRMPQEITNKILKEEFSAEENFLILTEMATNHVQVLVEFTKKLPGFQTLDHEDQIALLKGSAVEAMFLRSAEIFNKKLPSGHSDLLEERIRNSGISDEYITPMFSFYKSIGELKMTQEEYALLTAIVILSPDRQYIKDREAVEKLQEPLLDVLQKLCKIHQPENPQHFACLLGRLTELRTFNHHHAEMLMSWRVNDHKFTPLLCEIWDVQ
Procedure: as §1, §2, §3

RXRα = RXRα (Homo sapiens (Human), UniProt P19793); assay: as above; type: cell-based
RXRα, sequence (P19793 227-458): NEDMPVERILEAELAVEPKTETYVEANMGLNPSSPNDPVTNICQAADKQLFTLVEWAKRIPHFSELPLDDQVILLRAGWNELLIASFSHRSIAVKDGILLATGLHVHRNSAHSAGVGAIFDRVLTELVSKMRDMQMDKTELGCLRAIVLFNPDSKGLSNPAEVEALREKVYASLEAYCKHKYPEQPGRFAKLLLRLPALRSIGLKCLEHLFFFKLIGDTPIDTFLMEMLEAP
Procedure: as §1, §2, §3

[2] = system: murine collagen-induced arthritis model; assay: Murine collagen-induced arthritis model; type: in vivo, mouse; conditions: female DBA/1J mice, oral 3, 10 or 30 mg/kg twice daily; FIG. 4
Procedure: Female DBA/1J mice (Jackson Laboratories, 7-8 weeks old) were received and allowed to acclimate for about one week. On the day of immunization, an emulsion was freshly prepared by homogenizing equal volumes of Complete Freund's Adjuvant (CFA, Chondrex #7001) and a collagen type-2 solution (bovine source, Chondrex #20022) using a tissue homogenizer, on ice. A volume of 0.1 mL of this emulsion was injected subcutaneously into the base of the tail of each mouse, which was lightly anesthetized with isoflurane. Mice recovered from anesthesia were allowed food and water ad libitum.
Eighteen days after immunization, the mice were injected intraperitoneally with 40 μg of lipopolysaccaride (LPS, Sigma#L4005) in 0.2 mL saline, in order to help synchronize the disease progression in all animals. Seven days after LPS injection, the mice were assessed for knee joint swelling by measurement of each knee joint using digital calipers and computing total joint circumference. The total knee joint circumference of the 4 knee joints was then used to randomize mice into treatment groups of equal average circumference.
This dosing continued twice daily at 8- and 16-hour intervals for the duration of the study. As a positive control, one group of mice received 25 mg/kg Jak inhibitor (JAKi) tofacitinib once per day. Joints were measured 2-3 times per week.

[3] = antagonist mode, reference agonist at EC80

## O=C(O)[C@@H]1CC=C(c2nn(C(=O)c3c(Cl)cccc3C3(C(F)(F)F)CC3)c3c2CC[C@@H](C(=O)N2CCC4(COC4)C2)C3)CC1 [Test Compound]
[1]
  expression of BclxL in murine thymus: dose-dependent decrease in the expression of BclxL in murine thymus
TRα; agonist mode
  EC50: > 10 µM
TRα; [3]
  IC50: 16 µM
PXR
  EC50: 8.2 µM
RARβ; agonist mode
  EC50: > 10 µM
RARβ; [3]
  IC50: > 10 µM
RORβ
  IC50: > 10 µM
LXRβ; agonist mode
  EC50: > 10 µM
LXRβ; [3]
  IC50: > 10 µM
PPARα; agonist mode
  EC50: > 10 µM
PPARα; [3]
  IC50: > 10 µM
RARα; agonist mode
  EC50: > 10 µM
RARα; [3]
  IC50: > 10 µM
PPARβ; agonist mode
  EC50: > 10 µM
PPARβ; [3]
  IC50: > 10 µM
CAR; agonist mode
  EC50: > 10 µM
CAR; [3]
  IC50: > 10 µM
RARγ; agonist mode
  EC50: > 10 µM
RARγ; [3]
  IC50: > 10 µM
TRβ; agonist mode
  EC50: > 10 µM
TRβ; [3]
  IC50: > 10 µM
VDR; agonist mode
  EC50: > 10 µM
VDR; [3]
  IC50: > 10 µM
LXRα; agonist mode
  EC50: > 10 µM
LXRα; [3]
  IC50: > 10 µM
RORα
  IC50: > 10 µM
PPARγ; PPARγ, antagonist mode, reference agonist at EC80
  IC50: > 10 µM
PPARγ; read-out: Agonist Mode EC50
  EC50: 5.1 µM
FXR; agonist mode
  EC50: > 10 µM
FXR; [3]
  IC50: > 10 µM
RXRα; agonist mode
  EC50: > 10 µM
RXRα; [3]
  IC50: > 10 µM
[2]
  total joint circumference: dose-dependent decrease in total joint circumference
